# Where a name gives a salt, the structure may show the parent alone. Read-outs that look alike come from different tables or passages of the source.
# Legend:
# Experiment in all cases: AK assay 384-well format, Prestwick library screening
# [1] = test system: A. baumannii strain 98-37-09; format: cell-based, Acinetobacter baumannii; details: Acinetobacter baumannii, 983709, 3 h
# E. coli = format: cell-based, Escherichia coli; details: Escherichia coli, 3 h
# [2] = test system: S. aureus strain USA300-0114; format: cell-based, Staphylococcus aureus; details: Staphylococcus aureus, USA300, 3 h
# E. cloacae = format: cell-based, Enterobacter cloacae; details: Enterobacter cloacae, 3 h
# K. pneumoniae = format: cell-based, Klebsiella pneumoniae; details: Klebsiella pneumoniae, 3 h
# E. faecium = format: cell-based, Enterococcus faecium; details: Enterococcus faecium, 3 h
# P. aeruginosa = format: cell-based, Pseudomonas aeruginosa; details: Pseudomonas aeruginosa, 3 h
# [3] = 50 μM final drug concentration, planktonic, cutoff for positive 3-fold increase, read-out: AK-based Prestwick Library Screening Results, A. baumannii (fold increase in extracellular AK activity)
# [4] = 50 μM final drug concentration, planktonic, cutoff for positive 3-fold increase, read-out: AK-based Prestwick Library Screening Results, E. coli (fold increase in extracellular AK activity)
# [5] = 50 μM final drug concentration, planktonic, cutoff for positive 3-fold increase, read-out: AK-based Prestwick Library Screening Results, S. aureus (fold increase in extracellular AK activity)
# [6] = 50 μM final drug concentration, planktonic, cutoff for positive 3-fold increase, read-out: AK-based Prestwick Library Screening Results, E. cloacae (fold increase in extracellular AK activity)
# [7] = 50 μM final drug concentration, planktonic, cutoff for positive 3-fold increase, read-out: AK-based Prestwick Library Screening Results, K. pneumoniae (fold increase in extracellular AK activity)
# [8] = 50 μM final drug concentration, planktonic, cutoff for positive 3-fold increase, read-out: AK-based Prestwick Library Screening Results, E. faecium (fold increase in extracellular AK activity)
# [9] = 50 μM final drug concentration, planktonic, cutoff for positive 3-fold increase, read-out: AK-based Prestwick Library Screening Results, P. aeruginosa (fold increase in extracellular AK activity)
# [10] = 50 μM final drug concentration, planktonic, cutoff for positive-scoring molecules 3-fold increase, read-out: AK-based Prestwick Library Screening Results, A. baumannii (fold increase in extracellular AK activity)
# [11] = 50 μM final drug concentration, planktonic, cutoff for positive-scoring molecules 3-fold increase, read-out: AK-based Prestwick Library Screening Results, E. coli (fold increase in extracellular AK activity)
# [12] = 50 μM final drug concentration, planktonic, cutoff for positive-scoring molecules 3-fold increase, read-out: AK-based Prestwick Library Screening Results, S. aureus (fold increase in extracellular AK activity)
# [13] = 50 μM final drug concentration, planktonic, cutoff for positive-scoring molecules 3-fold increase, read-out: AK-based Prestwick Library Screening Results, E. cloacae (fold increase in extracellular AK activity)
# [14] = 50 μM final drug concentration, planktonic, cutoff for positive-scoring molecules 3-fold increase, read-out: AK-based Prestwick Library Screening Results, K. pneumoniae (fold increase in extracellular AK activity)
# [15] = 50 μM final drug concentration, planktonic, cutoff for positive-scoring molecules 3-fold increase, read-out: AK-based Prestwick Library Screening Results, E. faecium (fold increase in extracellular AK activity)
# [16] = 50 μM final drug concentration, planktonic, cutoff for positive-scoring molecules 3-fold increase, read-out: AK-based Prestwick Library Screening Results, P. aeruginosa (fold increase in extracellular AK activity)
# [17] = planktonic A. baumannii, 50 μM final drug concentration, positive cutoff 3-fold increase, read-out: AK-based Prestwick library screening result, A. baumannii (fold increase in extracellular AK activity)
# [18] = planktonic E. coli, 50 μM final drug concentration, positive cutoff 3-fold increase, read-out: AK-based Prestwick library screening result, E. coli (fold increase in extracellular AK activity)
# [19] = planktonic S. aureus, 50 μM final drug concentration, positive cutoff 3-fold increase, read-out: AK-based Prestwick library screening result, S. aureus (fold increase in extracellular AK activity)
# [20] = planktonic E. cloacae, 50 μM final drug concentration, positive cutoff 3-fold increase, read-out: AK-based Prestwick library screening result, E. cloacae (fold increase in extracellular AK activity)
# [21] = planktonic K. pneumoniae, 50 μM final drug concentration, positive cutoff 3-fold increase, read-out: AK-based Prestwick library screening result, K. pneumoniae (fold increase in extracellular AK activity)
# [22] = planktonic E. faecium, 50 μM final drug concentration, positive cutoff 3-fold increase, read-out: AK-based Prestwick library screening result, E. faecium (fold increase in extracellular AK activity)
# [23] = planktonic P. aeruginosa, 50 μM final drug concentration, positive cutoff 3-fold increase, read-out: AK-based Prestwick library screening result, P. aeruginosa (fold increase in extracellular AK activity)
# [24] = 50 μM final drug concentration, cutoff for positive-scoring molecules 3-fold increase, read-out: AK-based Prestwick Library Screening Results, A. baumannii (fold increase in extracellular AK activity)
# [25] = 50 μM final drug concentration, cutoff for positive-scoring molecules 3-fold increase, read-out: AK-based Prestwick Library Screening Results, E. coli (fold increase in extracellular AK activity)
# [26] = 50 μM final drug concentration, cutoff for positive-scoring molecules 3-fold increase, read-out: AK-based Prestwick Library Screening Results, S. aureus (fold increase in extracellular AK activity)
# [27] = 50 μM final drug concentration, cutoff for positive-scoring molecules 3-fold increase, read-out: AK-based Prestwick Library Screening Results, E. cloacae (fold increase in extracellular AK activity)
# [28] = 50 μM final drug concentration, cutoff for positive-scoring molecules 3-fold increase, read-out: AK-based Prestwick Library Screening Results, K. pneumoniae (fold increase in extracellular AK activity)
# [29] = 50 μM final drug concentration, cutoff for positive-scoring molecules 3-fold increase, read-out: AK-based Prestwick Library Screening Results, E. faecium (fold increase in extracellular AK activity)
# [30] = 50 μM final drug concentration, cutoff for positive-scoring molecules 3-fold increase, read-out: AK-based Prestwick Library Screening Results, P. aeruginosa (fold increase in extracellular AK activity)
# [31] = read-out: AK-based Prestwick Library Screening Results, A. baumannii (increase in extracellular AK activity)
# [32] = read-out: AK-based Prestwick Library Screening Results, E. coli (increase in extracellular AK activity)
# [33] = read-out: AK-based Prestwick Library Screening Results, S. aureus (increase in extracellular AK activity)
# [34] = read-out: AK-based Prestwick Library Screening Results, E. cloacae (increase in extracellular AK activity)
# [35] = read-out: AK-based Prestwick Library Screening Results, K. pneumoniae (increase in extracellular AK activity)
# [36] = read-out: AK-based Prestwick Library Screening Results, E. faecium (increase in extracellular AK activity)
# [37] = read-out: AK-based Prestwick Library Screening Results, P. aeruginosa (increase in extracellular AK activity)
compound,measurement,setting,value
O=c1c(O)c(-c2cc(O)c(O)c(O)c2)oc2cc(O)cc(O)c12 [Myricetin],fold induction at 50 µM,[1]; [3],0.8
same,fold induction at 50 µM,E. coli; [4],0.9
same,fold induction at 50 µM,[2]; [5],0.5
same,fold induction at 50 µM,E. cloacae; [6],1.2
same,fold induction at 50 µM,K. pneumoniae; [7],0.9
same,fold induction at 50 µM,E. faecium; [8],0.8
same,fold induction at 50 µM,P. aeruginosa; [9],0.9
CC(=O)N[C@@H](CC(C)C)C(=O)O [N-Acetyl-L-leucine],fold induction at 50 µM,[1]; [10],0.7
same,fold induction at 50 µM,E. coli; [11],0.7
same,fold induction at 50 µM,[2]; [12],0.7
same,fold induction at 50 µM,E. cloacae; [13],0.9
same,fold induction at 50 µM,K. pneumoniae; [14],0.6
same,fold induction at 50 µM,E. faecium; [15],0.9
same,fold induction at 50 µM,P. aeruginosa; [16],0.7
COc1ccc2cc(CCC(C)=O)ccc2c1 [Nabumetone],fold induction at 50 µM,[1]; [10],0.4
same,fold induction at 50 µM,E. coli; [11],0.5
same,fold induction at 50 µM,[2]; [12],0.4
same,fold induction at 50 µM,E. cloacae; [13],1
same,fold induction at 50 µM,K. pneumoniae; [14],0.5
same,fold induction at 50 µM,E. faecium; [15],0.4
same,fold induction at 50 µM,P. aeruginosa; [16],0.6
NC(=O)c1ccc[n+]([C@@H]2O[C@H](COP(=O)([O-])OP(=O)(O)OC[C@H]3O[C@@H](n4cnc5c(N)ncnc54)[C@H](O)[C@@H]3O)[C@@H](O)[C@H]2O)c1 [Nadide],fold induction at 50 µM,[1]; [10],0.8
same,fold induction at 50 µM,E. coli; [11],0.9
same,fold induction at 50 µM,[2]; [12],0.6
same,fold induction at 50 µM,E. cloacae; [13],0.9
same,fold induction at 50 µM,K. pneumoniae; [14],0.7
same,fold induction at 50 µM,E. faecium; [15],0.9
same,fold induction at 50 µM,P. aeruginosa; [16],0.8
CC1CCc2c(N3CCC(O)CC3)c(F)cc3c(=O)c(C(=O)O)cn1c23 (stereo not shown) [Nadifloxacin],fold induction at 50 µM,[1]; [17],2.9
same,fold induction at 50 µM,E. coli; [18],13.4
same,fold induction at 50 µM,[2]; [19],4.3
same,fold induction at 50 µM,E. cloacae; [20],1.7
same,fold induction at 50 µM,K. pneumoniae; [21],5.2
same,fold induction at 50 µM,E. faecium; [22],2.8
same,fold induction at 50 µM,P. aeruginosa; [23],17.7
CC(C)(C)NCC(O)COc1cccc2c1CC(O)C(O)C2 (stereo not shown) [Nadolol],fold induction at 50 µM,[1]; [10],0.7
same,fold induction at 50 µM,E. coli; [11],0.8
same,fold induction at 50 µM,[2]; [12],0.7
same,fold induction at 50 µM,E. cloacae; [13],0.8
same,fold induction at 50 µM,K. pneumoniae; [14],0.6
same,fold induction at 50 µM,E. faecium; [15],0.9
same,fold induction at 50 µM,P. aeruginosa; [16],0.6
CCOc1ccc2ccccc2c1C(=O)N[C@@H]1C(=O)N2[C@@H]1SC(C)(C)[C@@H]2C(=O)O [Nafcillin sodium salt monohydrate],fold induction at 50 µM,[1]; [24],1.5
same,fold induction at 50 µM,E. coli; [25],1.2
same,fold induction at 50 µM,[2]; [26],6.5
same,fold induction at 50 µM,E. cloacae; [27],1.4
same,fold induction at 50 µM,K. pneumoniae; [28],1
same,fold induction at 50 µM,E. faecium; [29],1
same,fold induction at 50 µM,P. aeruginosa; [30],1.3
CCN(CC)CCOC(=O)C(Cc1cccc2ccccc12)CC1CCCO1 (stereo not shown) [Nafronyl oxalate],fold induction at 50 µM,[1]; [3],1
same,fold induction at 50 µM,E. coli; [4],1
same,fold induction at 50 µM,[2]; [5],0.9
same,fold induction at 50 µM,E. cloacae; [6],1.4
same,fold induction at 50 µM,K. pneumoniae; [7],1
same,fold induction at 50 µM,E. faecium; [8],1
same,fold induction at 50 µM,P. aeruginosa; [9],1.1
CN(C/C=C/c1ccccc1)Cc1cccc2ccccc12 [Naftifine hydrochloride],fold induction at 50 µM,[1]; [17],1.1
same,fold induction at 50 µM,E. coli; [18],1
same,fold induction at 50 µM,[2]; [19],0.8
same,fold induction at 50 µM,E. cloacae; [20],1
same,fold induction at 50 µM,K. pneumoniae; [21],0.7
same,fold induction at 50 µM,E. faecium; [22],1
same,fold induction at 50 µM,P. aeruginosa; [23],0.8
COc1ccccc1N1CCN(CC(O)COc2cccc3ccccc23)CC1 (stereo not shown) [Naftopidil dihydrochloride],fold induction at 50 µM,[1]; [24],0.7
same,fold induction at 50 µM,E. coli; [25],0.9
same,fold induction at 50 µM,[2]; [26],0.5
same,fold induction at 50 µM,E. cloacae; [27],0.9
same,fold induction at 50 µM,K. pneumoniae; [28],0.6
same,fold induction at 50 µM,E. faecium; [29],0.8
same,fold induction at 50 µM,P. aeruginosa; [30],0.7
Oc1ccc2c3c1O[C@H]1[C@@H](O)CC[C@@]4(O)[C@@H](C2)N(CC2CCC2)CC[C@]314 [Nalbuphine hydrochloride],fold induction at 50 µM,[1]; [31],0.9
same,fold induction at 50 µM,E. coli; [32],0.9
same,fold induction at 50 µM,[2]; [33],0.7
same,fold induction at 50 µM,E. cloacae; [34],1.2
same,fold induction at 50 µM,K. pneumoniae; [35],0.7
same,fold induction at 50 µM,E. faecium; [36],0.9
same,fold induction at 50 µM,P. aeruginosa; [37],0.8
C=CCN1CC[C@]23c4c5ccc(O)c4O[C@H]2C(=O)CC[C@@]3(O)[C@H]1C5 [Naloxone hydrochloride],fold induction at 50 µM,[1]; [31],0.8
same,fold induction at 50 µM,E. coli; [32],0.9
same,fold induction at 50 µM,[2]; [33],0.7
same,fold induction at 50 µM,E. cloacae; [34],1.1
same,fold induction at 50 µM,K. pneumoniae; [35],0.6
same,fold induction at 50 µM,E. faecium; [36],0.8
same,fold induction at 50 µM,P. aeruginosa; [37],0.8
C[C@]12CC[C@H]3[C@@H](CCC4=CC(=O)CC[C@@H]43)[C@@H]1CC[C@@H]2O [Nandrolone],fold induction at 50 µM,"[1]; planktonic A. baumannii, 50 μM final drug concentration, […], read-out: AK-based Prestwick library screening result, A. baumannii (fold increase in extracellular AK activity)",0.8
same,fold induction at 50 µM,"E. coli; planktonic E. coli, 50 μM final drug concentration, […], read-out: AK-based Prestwick library screening result, E. coli (fold increase in extracellular AK activity)",0.9
same,fold induction at 50 µM,"[2]; planktonic S. aureus, 50 μM final drug concentration, […], read-out: AK-based Prestwick library screening result, S. aureus (fold increase in extracellular AK activity)",0.7
same,fold induction at 50 µM,"E. cloacae; planktonic E. cloacae, 50 μM final drug concentration, […], read-out: AK-based Prestwick library screening result, E. cloacae (fold increase in extracellular AK activity)",1
same,fold induction at 50 µM,"K. pneumoniae; planktonic K. pneumoniae, 50 μM final drug concentration, […], read-out: AK-based Prestwick library screening result, K. pneumoniae (fold increase in extracellular AK activity)",0.7
same,fold induction at 50 µM,"E. faecium; planktonic E. faecium, 50 μM final drug concentration, […], read-out: AK-based Prestwick library screening result, E. faecium (fold increase in extracellular AK activity)",1
same,fold induction at 50 µM,"P. aeruginosa; planktonic P. aeruginosa, 50 μM final drug concentration, […], read-out: AK-based Prestwick library screening result, P. aeruginosa (fold increase in extracellular AK activity)",0.9

# — patent US10004701B2, “Methods and compositions for treating infection” (UNIVERSITY OF ROCHESTER, priority 2012, dated 2018)
